# Data taken from patent EP4389749A1, “SUBSTITUTED 3,7-DIHYDRO-1H-PURINE-2,6-DIONES AND USE THEREOF” (invIOs GmbH, priority 2022, dated 2024).
# Tests used:
# [1] = system: CD4+ T-cells; assay: Immunostimulation assay with anti-CD3/28 stimulated T-cells, CD69 expression by flow cytometry; type: cell-based, human; settings: T-cell; purified human CD4+ and CD8+ T-cells, 1 µg/ml anti-CD3, 1 µg/ml anti-CD28, 16 hours, surface FACS; read-out: EC50 CD4+
# Method: (§1) Selection of potent compounds based on structure activity relation (SAR) using human, anti-CD3/28 stimulated T-cells. Enhanced activation of stimulated T-cells is measured by CD69 expression by flowcytometry.
# (§2) White blood cell enriched buffy coats were ordered from the Austrian red cross, diluted with PBS to a total volume of 480 ml, 30 ml transferred to 50ml falcons and 11 ml lymphoprep added. Cell suspensions were centrifuged for 20 min at 2200 rpm and the PBMC containing layer transferred, three times washed with PBS and counted.
# (§3) 10^7 PBMCs were magnetically labeled with CD4 and CD8 microbeads according to manufacturer's instructions and separated using autoMACS device. For dose response experiments with purified CD4+CD8+ T-cells 80000 cells were seeded per 96-well flat bottom cell culture dish.
# (§4) 10 mM compounds of the invention stocks were further diluted using DMSO and equal amounts transferred to T-cell containing 96-wells. Final concentrations tested were: 30 µM, 10 µM, 3 µM, 1 µM, 0.3 µM, 0.1 µM, 0.03 µM, 0.01 µM, 0.003 µM and 0.001 µM.
# (§5) For the stimulation assays 80.000 purified CD4+ and CD8+ T-cells were seeded per 96-well and incubated with 1 µg/ml anti-CD3, 1 µg/ml anti-CD28 and compounds of the invention ranging from 0.001 µM to 30 µM. DMSO only wells served as control to determine minimal T-cell activation upon stimulation and CD3/28 coupled Dynabeads were used to determine the maximal activation of T-cells. Cells were cultured for 16 hours in a humidified incubator at 37 °C and 5 % CO2.
# (§6) T-cells were stained for surface antigens (anti-CD4 and anti-CD8) and cell activation markers (anti-CD25 and anti-CD69). Additionally, a fixable viability dye was used to stain viable cells. Staining was performed for 15 minutes and cells analyzed using a Fortessa flow cytometer and FlowJo Software. EC50s were calculated using GraphPad Prism® and a variable slope model (agonist vs. response - variable slope).
# [2] = system: CD8+ T-cells; assay: as above; type: cell-based, human; settings: T-cell; purified human CD4+ and CD8+ T-cells, 1 µg/ml anti-CD3, 1 µg/ml anti-CD28, 16 hours, surface FACS; read-out: EC50 CD8+
# Method: as §1, §2, §3, §4, §5, §6
SMILES,EC50 [1],EC50 [2]
"COc1cc(-c2nc3c(c(=O)[nH]c(=O)n3CC(C)O)n2C)ccc1OCc1ccc(Cl)cc1 (centres unmarked) [Compound 88, 8-(4-((4-chlorobenzyl)oxy)-3-methoxyphenyl)-3-(2-hydroxypropyl)-7-methyl-3,7-dihydro-1H-purine-2,6-dione]",100 to 500 nM,100 to 500 nM
"COc1cc(-c2nc3c(c(=O)[nH]c(=O)n3C[C@H](O)C(F)F)n2C)ccc1OCc1ccccc1 [Compound 53, (S)-8-(4-(benzyloxy)-3-methoxyphenyl)-3-(3,3-difluoro-2-hydroxypropyl)-7-methyl-3,7-dihydro-1H-purine-2,6-dione]",< 100 nM,< 100 nM
"COc1cc(-c2nc3c(c(=O)[nH]c(=O)n3CC(O)C(F)(F)F)n2C)ccc1OCc1ccccc1 (centres unmarked) [Compound 57, 8-(4-(benzyloxy)-3-methoxyphenyl)-7-methyl-3-(3,3,3-trifluoro-2-hydroxypropyl)-3,7-dihydro-1H-purine-2,6-dione]",500 to 1000 nM,1000 to 5000 nM
"Cn1c(-c2ccc(OCc3ccc(C(F)F)cc3)c(F)c2)nc2c1c(=O)[nH]c(=O)n2CC(O)C(F)F (centres unmarked) [Compound 62, 3-(3,3-difluoro-2-hydroxypropyl)-8-(4-((4-(difluoromethyl)benzyl)oxy)-3-fluorophenyl)-7-methyl-3,7-dihydro-1H-purine-2,6-dione]",500 to 1000 nM,100 to 500 nM
"Cc1ccc(COc2ccc(-c3nc4c(c(=O)[nH]c(=O)n4CC(C)O)n3C)cc2)cc1 (centres unmarked) [Compound 77, 3-(2-hydroxypropyl)-7-methyl-8-(4-((4-methylbenzyl)oxy)phenyl)-3,7-dihydro-1H-purine-2,6-dione]",500 to 1000 nM,100 to 500 nM
"COc1cc(-c2nc3c(c(=O)[nH]c(=O)n3CC(O)CF)n2C)ccc1OCc1ccc(C(F)F)cc1 (centres unmarked) [Compound 73, 8-(4-((4-(difluoromethyl)benzyl)oxy)-3-methoxyphenyl)-3-(3-fluoro-2-hydroxypropyl)-7-methyl-3,7-dihydro-1H-purine-2,6-dione]",500 to 1000 nM,500 to 1000 nM
"COc1cc(-c2nc3c(c(=O)[nH]c(=O)n3CC(O)C(F)F)n2C)ccc1OCc1ccc(C)cc1 (centres unmarked) [Compound 19, 3-(3,3-difluoro-2-hydroxypropyl)-8-(3-methoxy-4-((4-methylbenzyl)oxy)phenyl)-7-methyl-3,7-dihydro-1H-purine-2,6-dione]",500 to 1000 nM,< 100 nM
"Cc1ccc(COc2ccc(-c3nc4c(c(=O)[nH]c(=O)n4CC(C)CO)n3C)cc2F)cc1 (centres unmarked) [Compound 97, 8-(3-fluoro-4-((4-methylbenzyl)oxy)phenyl)-3-(3-hydroxy-2-methylpropyl)-7-methyl-3,7-dihydro-1H-purine-2,6-dione]",100 to 500 nM,100 to 500 nM
"COc1cc(-c2nc3c(c(=O)[nH]c(=O)n3CC(C)CO)n2C)ccc1OCc1ccccc1 (centres unmarked) [Compound 56, 8-(4-(benzyloxy)-3-methoxyphenyl)-3-(3-hydroxy-2-methylpropyl)-7-methyl-3,7-dihydro-1H-purine-2,6-dione]",100 to 500 nM,100 to 500 nM
"Cn1c(-c2ccc(OCc3ccccc3)c(OC(F)(F)F)c2)nc2c1c(=O)[nH]c(=O)n2CC(O)CF (centres unmarked) [Compound 117, 8-(4-(benzyloxy)-3-(trifluoromethoxy)phenyl)-3-(3-fluoro-2-hydroxypropyl)-7-methyl-3,7-dihydro-1H-purine-2,6-dione]",< 100 nM,< 100 nM
"COc1cc(-c2nc3c(c(=O)[nH]c(=O)n3CC(C)O)n2C)ccc1OCc1ccc(C(F)F)cc1 (centres unmarked) [Compound 86, 8-(4-((4-(difluoromethyl)benzyl)oxy)-3-methoxyphenyl)-3-(2-hydroxypropyl)-7-methyl-3,7-dihydro-1H-purine-2,6-dione]",100 to 500 nM,100 to 500 nM
"COc1cc(-c2nc3c(c(=O)[nH]c(=O)n3CC(C)O)n2C)ccc1OCc1ccc(OC(F)F)cc1 (centres unmarked) [Compound 85, 8-(4-((4-(difluoromethoxy)benzyl)oxy)-3-methoxyphenyl)-3-(2-hydroxypropyl)-7-methyl-3,7-dihydro-1H-purine-2,6-dione]",100 to 500 nM,100 to 500 nM

# The next lines start with the values.
EC50 [1],EC50 [2],SMILES
1000 to 5000 nM,500 to 1000 nM,"CC(O)Cn1c(=O)[nH]c(=O)c2c1nc(-c1ccc(Oc3ccc(S(C)(=O)=O)cc3)cc1)n2C (centres unmarked) [Compound 176, 3-(2-hydroxypropyl)-7-methyl-8-(4-(4-(methylsulfonyl)phenoxy)phenyl)-3,7-dihydro-1H-purine-2,6-dione]"
500 to 1000 nM,500 to 1000 nM,"COc1cc(COc2ccc(-c3nc4c(c(=O)[nH]c(=O)n4CC(C)O)n3C)cc2OC)ccc1F (centres unmarked) [Compound 127, 8-(4-((4-fluoro-3-methoxybenzyl)oxy)-3-methoxyphenyl)-3-(2-hydroxypropyl)-7-methyl-3,7-dihydro-1H-purine-2,6-dione]"
100 to 500 nM,100 to 500 nM,"CC(CO)Cn1c(=O)[nH]c(=O)c2c1nc(-c1ccc(Oc3ccc(OC(F)F)cc3)c(Cl)c1)n2C (centres unmarked) [Compound 151, 8-(3-chloro-4-(4-(difluoromethoxy)phenoxy)phenyl)-3-(3-hydroxy-2-methylpropyl)-7-methyl-3,7-dihydro-1H-purine-2,6-dione]"
100 to 500 nM,100 to 500 nM,"CC(O)Cn1c(=O)[nH]c(=O)c2c1nc(-c1ccc(Oc3ccc4ccccc4c3)cc1)n2C (centres unmarked) [Compound 186, 3-(2-hydroxypropyl)-7-methyl-8-(4-(naphthalen-2-yloxy)phenyl)-3,7-dihydro-1H-purine-2,6-dione]"
< 100 nM,< 100 nM,"Cn1c(-c2ccc(OCc3ccccc3)c(OC(F)(F)F)c2)nc2c1c(=O)[nH]c(=O)n2CC(O)C(F)(F)F (centres unmarked) [Compound 119, 8-(4-(benzyloxy)-3-(trifluoromethoxy)phenyl)-7-methyl-3-(3,3,3-trifluoro-2-hydroxypropyl)-3,7-dihydro-1H-purine-2,6-dione]"
100 to 500 nM,100 to 500 nM,"COc1cc(-c2nc3c(c(=O)[nH]c(=O)n3CC(C)O)n2C)ccc1OCc1ccc(C)cc1 (centres unmarked) [Compound 125, 3-(2-hydroxypropyl)-8-(3-methoxy-4-((4-methylbenzyl)oxy)phenyl)-7-methyl-3,7-dihydro-1H-purine-2,6-dione]"
< 100 nM,< 100 nM,"Cn1c(-c2ccc(OCc3ccccc3)c(OC(F)(F)F)c2)nc2c1c(=O)[nH]c(=O)n2CC(O)C(F)F (centres unmarked) [Compound 199, 8-(4-(benzyloxy)-3-(trifluoromethoxy)phenyl)-3-(3,3-difluoro-2-hydroxypropyl)-7-methyl-3,7-dihydro-1H-purine-2,6-dione]"
1000 to 5000 nM,1000 to 5000 nM,"CC(O)Cn1c(=O)[nH]c(=O)c2c1nc(-c1ccc(Oc3cccc(Cl)c3)cc1)n2C (centres unmarked) [Compound 184, 8-(4-(3-chlorophenoxy)phenyl)-3-(2-hydroxypropyl)-7-methyl-3,7-dihydro-1H-purine-2,6-dione]"
100 to 500 nM,100 to 500 nM,"CC(O)Cn1c(=O)[nH]c(=O)c2c1nc(-c1ccc(OCCCc3ccccc3)c(F)c1)n2C (centres unmarked) [Compound 201, 8-(3-fluoro-4-(3-phenylpropoxy)phenyl)-3-(2-hydroxypropyl)-7-methyl-3,7-dihydro-1H-purine-2,6-dione]"
100 to 500 nM,100 to 500 nM,"CC(O)Cn1c(=O)[nH]c(=O)c2c1nc(-c1ccc(OCc3ccccc3)c(OC(F)(F)F)c1)n2C (centres unmarked) [Compound 120, 8-(4-(benzyloxy)-3-(trifluoromethoxy)phenyl)-3-(2-hydroxypropyl)-7-methyl-3,7-dihydro-1H-purine-2,6-dione]"
